In brackets after ≈: the same amount, converted by molar mass. Entries after “also recorded” stand apart in the source; their conditions may differ.
Tests used:
[1] = test system: herpes viruses; assay: antiviral activity against herpes viruses (general statement)
[2] = test system: Herpes simplex virus type 1 (HSV-1), strain Schooler; assay: Oral treatment of intraperitoneal HSV-1 infection of mice (Example 17); format: in vivo, ICR/Ha mice; conditions: for Percent Survival: at 15 days
Protocol: Twenty gram ICR/Ha mice were injected intraperitoneally (i.p.) with 0.5 ml of a 10^-5 dilution of a stock preparation of Herpes Simplex virus type 1 (HSV-1), strain Schooler. This virus challenge infected mice with approximately 50 to 100 LD50. Starting immediately after virus infection and continuing twice daily for 7 days, each animal was treated by oral gavage in groups of 10 with: 500 μg, 125 μg, 31 μg or 8 μg of (S)-9-(2,3-dihydroxy-1propoxymethyl)guanine; 500 μg, 125 μg, 31 μg or 8 μg of acyclovir or placebo (physiological saline, pH 11.5). All compounds were solubilized in physiological saline, pH 11.5.
(§1) The statistical analyses were carried out as described in Example 15.

[3] = test system: Herpes simplex virus Type 1 (Schooler); assay: Method 2: virus plaque reduction in MRC-5 cells, HSV-1; format: cell-based
Protocol: Method 2: Confluent monolayers of MRC-5 cells were incubated for one hour at 37° C. with 50-100 plaque forming units of the indicated virus. Following incubation, the cell monolayers were refed with maintenance medium containing 2% methyl cellulose and the chemical agent indicated. Duplicate cultures were incubated with each concentration of the chemical agent tested. Following further incubation for 3 days at 37° C., the monolayers were stained and the developed virus plaques were counted. The concentration (μg/ml) of each chemical agent which reduced plaque development by 50% (ED50) was determined.

[4] = test system: Herpes simplex virus Type 2 (Curtis); assay: Method 1: inhibition of viral induced cytopathology in primary rabbit kidney cell cultures, HSV-2; format: cell-based; conditions: Human alphaherpesvirus 2; HSV-2 (Curtis), primary rabbit kidney cells; total suppression of cytopathology in 50% of cultures; read-out: Minimum Effective Concentration
Protocol: (§2) Method 1: Confluent monolayers of primary rabbit kidney cell cultures were refed with maintenance medium containing serial dilutions of the test compounds and incubated overnight at 37° C. At each dilution, four cultures were challenged with approximately 10 TCID50 HSV-1, four cultures were challenged with approximately 10 TCID50 HSV-2,and two cultures were left as toxicity controls. Cultures were reincubated at 37° C. and observed for viral induced cytopathology at days 5 and 7. Minimum Effective Concentration (μg/ml) is defined as the concentration of antiviral compound required to totally suppress the development of viral cytopathology in 50% of the infected rabbit kidney cell cultures.

[5] = test system: Herpes simplex virus type 1 (HSV-1), strain Schooler; assay: Oral treatment of intraperitoneal HSV-1 infection of mice (Example 16); format: in vivo, ICR/Ha mice
Protocol: (§3) Twenty gram ICR/Ha mice were injected intraperitoneally (i.p.) with 0.5 ml of a 10^-5 dilution of a stock preparation of Herpes simplex virus type 1 (HSV-1), strain Schooler. This virus challenge infected each animal with approximately 50 to 100 LD50 s. Starting immediately after virus infection and continuing twice daily for 7 days, each animal was treated by oral gavage in groups of 10 with: 250 μg, 125 μg, 8 μg or 2 μg of (S)-9-(2,3-dihydroxy-1-propoxymethyl)guanine; 500 μg, 125 μg, 31 μg, 8 μg or 2 μg of racemic 9-(2,3-dihydroxy-1-propoxymethyl)guanine; or placebo (physiological saline, pH 11.5). All compounds were solubilized in physiological saline, pH 11.5. The mice were observed daily for 15 days at the same time each day and the day of death was recorded for each animal.
as §1

[6] = test system: Herpes simplex virus Type 1 (Schooler); assay: Method 1: inhibition of viral induced cytopathology in primary rabbit kidney cell cultures, HSV-1; format: cell-based; conditions: Human alphaherpesvirus 1; HSV-1 (Schooler), primary rabbit kidney cells; total suppression of cytopathology in 50% of cultures; read-out: Minimum Effective Concentration
Protocol: as §2

[7] = test system: Herpes simplex virus type 1 (HSV-1), strain Schooler; assay: Parenteral (subcutaneous) treatment of Herpes simplex virus type 1 infection in mice; format: in vivo, ICR/Ha mice; conditions: for Avg. Survival Time / Percent Survival: s.c.
Protocol: as §3, with “(ip)” for “(i.p.)”, “LD50.” for “LD50 s.”, “4” for “7”, “injected subcutaneously” for “treated by oral gavage”, “with:” for “with: 250 μg, 125 μg, 8 μg or 2 μg of (S)-9-(2,3-dihydroxy-1-propoxymethyl)guanine; 500 μg,”, “compounds A, B or C;” for “racemic 9-(2,3-dihydroxy-1-propoxymethyl)guanine;”
Statistical analyses [reference: Liddel, F.D.K., Evaluation of Survival in Challenge Experiments, Microbiol. Rev., 42, 237 (1978)]were performed on survival times transformed by the negative exponential transformation:
t=number of days an animal survived
T=duration of trial (15 days)
A continuity correction was used to account for daily observation:
Within each group, mice surviving through the trial period were assigned equally values of 0.9 and 1.0 to adjust for termination of the trial.
Average survival time per group was calculated from average corrected transformed survival times [fc (t)] as follows:
t avg=[T/log(0.1).[log(1-fc (t)]

[8] = 125 μg/dose twice daily for 7 days, 12.5 mg/kg/day
[9] = 500 μg/dose twice daily for 7 days, 50 mg/kg/day

Compound: Nc1nc2c(ncn2COC[C@@H](O)CO)c(=O)[nH]1 [A, (S)-9-(2,3-dihydroxy-1-propoxymethyl)guanine]
- antiviral (antiherpetic) activity ([1]; general statement in words): substantial antiviral activity against various herpes viruses; also recorded: potent antiherpetic activity
- antiviral (antiherpetic) activity compared with acyclovir ([1]; vs 9-(2-hydroxyethoxymethyl)guanine (acyclovir)): significantly greater antiviral activity; also recorded: much more potent
- antiherpetic activity compared with the racemic mixture or the (R)-enantiomer ([1]; vs racemic mixture or (R)-enantiomer): better than the corresponding racemic mixture or the (R)-enantiomer
- Avg. Survival Time ([2]; 8 μg/dose twice daily for 7 days, 0.8 mg/kg/day, ^b (all): not statistically different from placebo): 6.2 days
- Percent Survival ([2]; 8 μg/dose twice daily for 7 days, 0.8 mg/kg/day): 0%
- Avg. Survival Time ([2]; 31 μg/dose twice daily for 7 days, 3.1 mg/kg/day, ^b (all): not statistically different from placebo): 6.9 days
- Percent Survival ([2]; 31 μg/dose twice daily for 7 days, 3.1 mg/kg/day): 0%
- Avg. Survival Time [2, 8]: 8.1 days
- Percent Survival [2, 8]: 0%
- Avg. Survival Time [2, 9]: 12.9 days
- Percent Survival [2, 9]: 30%
- protection over placebo-treated animals, as measured by average survival time ([2]; 12.5 mg/kg/day): conferred significant protection over placebo-treated animals
- protection over placebo-treated animals, as measured by average survival time ([2]; 50 mg/kg/day): conferred significant protection over placebo-treated animals
- relative potency to acyclovir ([2]; statistically significant): 2.8
- fold more effective than B in protecting cell cultures against HSV-1 infection ([3]; A vs B, conclusion of Example 14 (Methods 1 and 2)): 10 to 25 fold
- fold more active than C in protecting cell cultures against HSV-1 infection ([3]; A vs C, conclusion of Example 14 (Methods 1 and 2)): about 2 fold
- EC50 ([3]; Human alphaherpesvirus 1, MRC5, 72 h, HSV-1 (Schooler), MRC-5 cells, 3 days, 50% reduction of plaque development, read-out: ED50 (the source's name)): 0.5 µg/mL (≈ 1.96 µM)
- minimal effective concentration [4]: 3.1 µg/mL
- Avg. Survival Time ([5]; 2 μg/dose twice daily for 7 days, 0.2 mg/kg/day, ^3 (all): not statistically different from placebo): 7.2 days
- Percent Survival ([5]; 2 μg/dose twice daily for 7 days, 0.2 mg/kg/day, at 15 days): 0%
- Avg. Survival Time ([5]; 8 μg/dose twice daily for 7 days, 0.8 mg/kg/day, ^3 (all): not statistically different from placebo): 7.2 days
- Percent Survival ([5]; 8 μg/dose twice daily for 7 days, 0.8 mg/kg/day, at 15 days): 0%
- Avg. Survival Time ([5]; 31 μg/dose twice daily for 7 days, 3.1 mg/kg/day, ^3 (all): not statistically different from placebo): 7.5 days
- Percent Survival ([5]; 31 μg/dose twice daily for 7 days, 3.1 mg/kg/day, at 15 days (acyclovir not at the same time)): 0%
- Avg. Survival Time ([5]; 125 μg/dose twice daily for 7 days, 12.5 mg/kg/day, ^3 (racemate, acyclovir): not statistically different from placebo): 10.2 days
- Percent Survival ([5]; 125 μg/dose twice daily for 7 days, 12.5 mg/kg/day, at 15 days (acyclovir not at the same time)): 20%
- Avg. Survival Time ([5]; 250 μg/dose twice daily for 7 days, 25 mg/kg/day): 9.8 days
- Percent Survival ([5]; 250 μg/dose twice daily for 7 days, 25 mg/kg/day, at 15 days): 10%
- protection over placebo-treated animals, as measured by average survival time ([5]; 12.5 mg/kg/day): conferred significant protection over placebo-treated animals
- protection over placebo-treated animals, as measured by average survival time ([5]; 25 mg/kg/day): conferred significant protection over placebo-treated animals
- minimal effective concentration [6]: 0.8 to 1.5 µg/mL
- relative potency of A to C ([7]; parallel line analysis, not statistically significant): 2.3
- relative potency of A to B ([7]; parallel line analysis, statistically significant): 5.3
- Avg. Survival Time ([7]; 2 μg/dose twice daily for 4 days, 0.2 mg/kg/day, ^3 (all): not statistically different from placebo): 6.1 days
- Percent Survival ([7]; 2 μg/dose twice daily for 4 days, 0.2 mg/kg/day, at 15 days): 0%
- Avg. Survival Time ([7]; 8 μg/dose twice daily for 4 days, 0.8 mg/kg/day, ^3 (all): not statistically different from placebo): 6.7 days
- Percent Survival ([7]; 8 μg/dose twice daily for 4 days, 0.8 mg/kg/day, at 15 days): 0%
- Avg. Survival Time ([7]; 31 μg/dose twice daily for 4 days, 3.1 mg/kg/day, ^3 (all): not statistically different from placebo): 7.6 days
- Percent Survival ([7]; 31 μg/dose twice daily for 4 days, 3.1 mg/kg/day, at 15 days): 10%
- Avg. Survival Time ([7]; 125 μg/dose twice daily for 4 days, 12.5 mg/kg/day, ^3 (B, acyclovir): not statistically different from placebo): 10.7 days
- Percent Survival ([7]; 125 μg/dose twice daily for 4 days, 12.5 mg/kg/day, at 15 days (acyclovir not at the same time)): 40%
